Assay results: a melting point compilation (Tetko et al.; mined from patent text by program, amines drawn as free bases though some values may be those of a salt)

First: CC1(C)OC(=O)C(Oc2ccc(Br)cc2)=C1c1ccc(S(C)(=O)=O)cc1
Second: S=c1[nH]c(-c2ccc(Br)cc2)c(-c2ccc(Br)cc2)[nH]1
The melting point of the first is lower: 150 to 152 °C for the first, 288 °C for the second.

First: CC(=O)NC1(c2ccccc2)CCN(CCC(CN2C(=O)c3ccccc3C2=O)c2ccc(Cl)c(Cl)c2)CC1 (stereo unspecified)
Second: COC(=O)c1c(-c2ccc(Cl)cc2)c2cc(OCc3ccccc3)ccc2c(=O)n1CC(C)C
The melting point of the first is lower: 83 to 85 °C for the first, 166 °C for the second.

First: CCOC(=O)C(=O)Nc1nc2c(s1)C(=O)c1ccccc1-2
Second: CCOC(=O)c1ncn2c1[C@@H]1CCN1C(=O)c1c-2cccc1C(F)(F)F
The melting point of the first is higher: 237 to 238 °C for the first, 183 to 184 °C for the second.

First: C=CC(=O)N[C@H](C)C(=O)OC1(C)CCC(C(C)C)CC1 (stereo partly specified)
Second: COC(=O)CCC1CCC(=O)N1 (stereo unspecified)
The melting point of the first is higher: 79 °C for the first, 52 to 53 °C for the second.

First: CNc1ncc2c(n1)N(c1ccccc1)C(=O)N(c1c(Cl)cccc1Cl)C2
Second: Clc1ccc(-c2c(Cc3nc4ccccc4o3)cnn2-c2ccccc2)cc1
The melting point of the first is higher: 211 to 213 °C for the first, 137 to 139 °C for the second.

First: COc1ccc(C(=O)Cc2ccccc2)c(Cl)c1Cl
Second: COc1ccc(CC(=O)c2ccc(OC)cc2OC)cc1
The melting point of the first is higher: 125 to 127 °C for the first, 78.5 to 79.5 °C for the second.

First: CCCCC1Oc2ccc(NC(C)=O)cc2C1O (stereo unspecified)
Second: CCOC(=O)C1(Br)Oc2cc(OC(C)=O)ccc2OC1Br (stereo unspecified)
The melting point of the first is higher: 134 to 137 °C for the first, 131 °C for the second.

First: Cc1nc(N2CCN(Cc3ccc(F)cc3)C2=O)sc1C(=O)N(C)C
Second: C[C@H](C#Cc1sc(Cc2ccc(F)cc2)cc1Cl)N(O)C(N)=O
The melting point of the first is higher: 162 to 164 °C for the first, 131 to 132 °C for the second.

Compared with `CCN1c2ncc(CCc3ccnc(C)c3)cc2C(=O)N(C)c2ccc(Cl)nc21`, `CCc1nccn1CC(=O)c1ccc(-c2ccc(N3C[C@H](Cn4ccnn4)OC3=O)cc2F)cn1` is lower in melting point: 94 to 96 °C for the first, 77 to 79 °C for the second.

First: N#CN=C(Nc1ccccc1Br)Nc1ccc(C#N)c(Br)c1O
Second: Cc1cc(-c2ccccc2)n2nc(C)c(C#N)c2n1
The melting point of the first is lower: 142 °C for the first, 175 to 177 °C for the second.

Compared with `Cc1c(C(O)C2CCc3c(c4ccccc4n3C)C2=O)ncn1C(c1ccccc1)(c1ccccc1)c1ccccc1` (stereo unspecified), `Oc1ccc(-c2noc(C3(CSc4ccccc4)CC3)c2-c2ccccc2)cc1` is higher in melting point: 141 to 147 °C for the first, 180 to 181 °C for the second.

Compared with `COC(=O)c1cc2c(Br)csc2nc1C(=O)OC`, `COC(=O)c1cc(C=O)c(NS(C)(=O)=O)c([N+](=O)[O-])c1` is higher in melting point: 86 to 87.5 °C for the first, 158 to 160 °C for the second.

First: CCCCCCCNC(=O)Nc1ccccc1C(=O)NC1CCN(Cc2ccccc2)CC1
Second: COc1ccccc1C1(O)C(O)CC(C)(C)C2CN(Cc3ccccc3)CC21 (stereo unspecified)
The melting point of the first is lower: 134 °C for the first, 190 °C for the second.

First: Cc1nnc(COc2ccc(OCC(C)Oc3ccccn3)cc2)s1 (stereo unspecified)
Second: O=C(Cl)c1ccc(Oc2ccc(Oc3ccccc3)cc2)cc1
The melting point of the first is lower: 72 to 78 °C for the first, 85 to 89 °C for the second.

Compared with `CN1C(=O)Cc2c(Cl)cc(Cl)cc21`, `Cc1cc(Oc2c(Cl)cc(C(F)(F)F)cc2Cl)nn1C(=S)NCC1CCCO1` (stereo unspecified) is lower in melting point: 144 to 145 °C for the first, 69 to 71 °C for the second.

Compared with `C=Cc1ccc(S(=O)(=O)NS(=O)(=O)c2ccccc2)cc1`, `CN(C)C(=O)C(Nc1ccccc1)c1ccccc1` (stereo unspecified) is lower in melting point: 145 to 147 °C for the first, 134 to 137 °C for the second.

First: OCC(O)COc1noc2ccc(Cl)cc12 (stereo unspecified)
Second: COc1cc(C(=O)CCl)ccc1O
The melting point of the first is lower: 61 to 62 °C for the first, 102 to 103 °C for the second.

First: COc1cc(C=CC(=O)c2cccc(F)c2)cc(OC)c1
Second: COc1ccc(OC)c2[nH]c(-c3ccccc3)nc12
The melting point of the first is lower: 89.5 to 90.3 °C for the first, 226 to 227 °C for the second.

`CC(C)(C)OC(=O)N1CCCN(c2ccnc3sc(C(N)=O)c(N)c23)CC1` and `C[C@]1(COC(=O)N2CCN(N=Cc3ccc(C(F)(F)F)cc3)CC2)Cn2cc([N+](=O)[O-])nc2O1` cannot be ordered by melting point: 177 to 178 °C for the first, 176 to 178 °C for the second.

First: ON=CC12CCCN(CCC1)C2
Second: CCc1nc2c(N)nc3ccccc3c2n1CC1(O)CCN(C)CC1
The melting point of the first is lower: 115 to 117 °C for the first, 233 to 234 °C for the second.

Compared with `O=C1c2ccc(-c3cccnc3)cc2CC1Cl` (stereo unspecified), `NC(=O)Nc1ccc(C2=NNC(=O)Cc3cc4c(cc32)OCO4)cc1` is higher in melting point: 103 to 105 °C for the first, 238 to 241 °C for the second.

Compared with `CNCC1CCN(c2c(F)cc3c(=O)c(C(=O)O)cn4c3c2OCC4C)C1` (stereo unspecified), `CN1CCOc2cc(S(=O)(=O)n3c(COC(C)(C)C(=O)O)cc4cc(Cl)ccc43)ccc21` is lower in melting point: 235 to 238 °C for the first, 148 to 150 °C for the second.

Compared with `Cc1noc(NS(=O)(=O)c2cccc3cccnc23)c1Br`, `COC1(c2cccc(S(=O)(=O)c3ccc4c(c3)sc(=O)n4C)c2)CCOCC1` is higher in melting point: 169 to 171 °C for the first, 174 to 176 °C for the second.

First: CC(C)CCNC1=NS(=O)(=O)c2sc(Cl)cc2N1
Second: Cc1cc(=O)oc2nn(C(C)C)c(C)c12
The melting point of the first is higher: 230 to 232 °C for the first, 164 to 166 °C for the second.

First: CNc1ccc(Cl)cc1
Second: CCCn1nc(-c2ccc(O)c(F)c2)c2cccc(Cl)c21
The melting point of the first is lower: 72 to 74 °C for the first, 134 to 135 °C for the second.

First: CCCCc1nn(-c2cc(C(=O)OC)ccc2Cl)c(=O)n1Cc1ccc(-c2ccccc2S(=O)(=O)NC(C)(C)C)cc1
Second: CCOC(=O)c1ccc(-c2cccc(-c3ccc4c(c3)C(C)(C)CCC4(C)C)c2OCOC)cc1
The melting point of the first is lower: 65 to 67 °C for the first, 75 °C for the second.

First: O=C1CC(O)CC(C=Cc2c3c(nn2-c2ccc(F)cc2)C(Cc2ccccc2)CCC3)O1 (racemic)
Second: O=C(c1cc(I)c(O)c(I)c1)c1c(Cc2ccccc2)oc2ccccc12
The melting point of the first is higher: 185 to 187 °C for the first, 153 to 154 °C for the second.

`Cc1nc(N2CCc3ccccc3CC2)c(C#N)c(=O)n1CC#N` and `COc1cccc2c1CCN(c1nc(C)[nH]c(=O)c1[N+](=O)[O-])CC2` cannot be ordered by melting point: > 200 °C for the first, > 200 °C for the second.

First: CCC(O)(CC)c1ccc(-c2ccc(OCc3ccc(CO)c(CO)c3)cc2)c(C)c1
Second: Cc1cc2cc(CN(C)C)cnc2cc1NC(=O)c1ccc(-c2ccc(F)cc2)cc1
The melting point of the first is lower: 97 °C for the first, 183 to 186 °C for the second.

Compared with `N#Cc1ccc(-c2ccc(-c3ccn([C@H](CC(=O)O)C(=O)N[C@H](CO)Cc4ccccc4)c3)cc2)cc1`, `COC(=O)/C=C/[C@@H](c1ccc2ccccc2c1)c1cccc2c1ccn2C(=O)OC(C)(C)C` is lower in melting point: 189 to 192 °C for the first, 75 to 78 °C for the second.

First: Nc1c([N+](=O)[O-])sc2ccc(C(F)(F)F)cc12
Second: Nc1cc(I)c(-c2cc([N+](=O)[O-])c(N)cc2I)cc1[N+](=O)[O-]
The melting point of the first is lower: 198 to 201 °C for the first, 346 to 348 °C for the second.

Compared with `COc1cccc(C23CCC(=O)C(C2)NC3=O)c1` (stereo unspecified), `CC(=O)OCCC(C(N)=O)C1(C)OCCc2c1[nH]c1ccccc21` (stereo unspecified) is higher in melting point: 138 to 139 °C for the first, 141 to 143 °C for the second.

First: CCC(CC)CCc1nn(C)c2cc(C(=O)OC)ccc12
Second: CCCc1c(OCc2cccn3c(=O)c(CC(=O)O)cnc23)ccc(C(C)=O)c1O
The melting point of the first is lower: 91 to 93 °C for the first, 239 to 243 °C for the second.

First: CCCCN(CCCCCN(CCCC)c1ccc(C=O)cc1)c1ccc(C=O)cc1
Second: O=C=Nc1ccc(OC(=O)CCC(=O)Oc2ccc(N=C=O)cc2)cc1
The melting point of the first is lower: 51 to 52 °C for the first, 193 to 195 °C for the second.

First: CC(=O)N[C@@H](C)CO[C@H]1CC[C@H](n2cc3ccc(OCCC4CC4)cc3n2)CC1
Second: CS(=O)(=O)c1ccc(C(CC2CCCC2)C(=O)Nc2nccs2)cc1C#N (stereo unspecified)
The melting point of the first is lower: 98 to 99 °C for the first, 145 to 148 °C for the second.

`O=C1OC(CCOc2ccc3oc4ccccc4c3c2)C(O)=C1O` (stereo unspecified) showed a melting point of 191 to 192 °C.
